# US6989401B2, “Sulfonic acid derivatives of hydroxamic acids and their use as medicinal products” (Mitsubishi Pharma Corporation, priority 2000, dated 2006)
# Like-named read-outs stand apart in the source and are kept apart here.
# Legend:
# [1] = test system: LPS in E. coli culture supernatant (E. coli NIHJ JC-2 strain); test: Inhibitory effect on LPS in E. coli culture supernatant; format: cell-based; settings: relative ratio to the inhibitory ratio of the compound of Example 1 as 1.0, compound 100 μM, 24 hr
# Method: One platinum loop of E. coli NIHJ JC-2 strain was inoculated into a test tube containing heart infusion broth (HIB, 5 mL) and cultured for about 24 hr. The bacterial culture broth was washed three times by centrifugation (3000 rpm, 15 min, 20° C., TOMY Seiko, RL-131) using 10 mL of fresh HIB medium for one cycle of washing. The washed bacteria were prepared to an about 10^7 colony forming unit (CFU)/mL with a fresh HIB medium, and 0.2 mL of the prepared bacterial suspension was inoculated into an Erlenmeyer flask containing a fresh HIB medium (18.8 mL) (i.e., to final bacterial concentration of about 10^5 CFU/mL). A solution (1 mL) of each compound prepared to a concentration of 2 mM (final concentration of compound 100 μM) was added to the culture broth containing the bacteria. Using a shaker (RGR-1 type, manufactured by IWASHIYA, Ltd.), shake culture was conducted at 37° C., and 2 mL of culture broth after 24 hr was sampled. The sampled culture broth was filtered (DISMIC, 0.45 μm, Advantech Toyo) and diluted 10^5-fold with sterile distilled water. The resulting suspension (200 μL) was added to a limulus reagent (LAL ES, Wako Pure Chemical Industries) and LPS concentration was measured using Toxinometer MT-285 (Wako Pure Chemical Industries) preheated to 37° C.
# The LPS inhibitory ratio of the compound was calculated as a ratio of the LPS concentration of the compound addition group relative to the LPS concentration of the compound non-addition group. […] The inhibitory ratio of each compound is shown in the following in Table 1 as a relative ratio to the inhibitory ratio of the compound of Example 1 as 1.0.
# [2] = test system: LPS in rat peritonitis (CLP; cecal ligation and puncture) model; test: Inhibitory effect on LPS that increases in rat peritonitis (CLP) model; format: in vivo; settings: iv, continuous tail vein infusion 2.5 mg/kg/hr
# Method: Rat peritonitis (CLP; cecal ligation and puncture) model was prepared according to the method of Wichterman et al. (J. Surg. Res. 29, 189-201 <1980>). That is, a rat fasted overnight was anesthetized with ether, and a midline laparotomy was performed and the cecum was exposed. The cecum was ligated with a 3-0 silk thread at its base and perforated two times with an 18 G injection needle. The cecum was gently squeezed to extrude feces, which were spread around the abdomen, and the sectioned part was sutured. The animal was fixed in a Borrmann cage, and physiological saline or drug solution ([…]) was continuously given from the tail vein at an administration rate of 2.5 mg/kg/hr with an infusion pump (22 M, Harvard, 5 mL/kg/hr as a dose).
# After 6 hr of the CLP treatment, the animal was sacrificed with carbonic acid gas. The abdominal cavity was washed by injecting phosphate buffered saline (PBS; 37° C., 10 mL) and the abdominal cavity washing containing ascites (PLF; peritoneal lavage fluid) was recovered. The recovery weight of the obtained PLF was measured, and PLF was centrifuged (1500 rpm for 5 min, 4° C.) to recover supernatant. The blood taken from the heart was centrifuged (3000 rpm for 10 min, 4° C.) using a serum separation tube, and the serum was recovered. The concentration of LPS in the abdominal cavity and serum was measured using Toxinometer MT-285 (Waco Pure Chemical Industries) preheated to 37° C., after diluting the supernatant and serum of the recovered PLF 10^5-fold and 10^2-fold, respectively, with sterile distilled water, and adding 200 μL thereof to a limulus reagent (LAL ES, Waco Pure Chemical Industries). The amount of LPS per abdominal cavity was calculated from amount of recovered abdominal cavity washing (PLF)×LPS concentration of PLF.
# The LPS inhibitory ratio of the compound was calculated as the ratio of LPS concentration of the compound administration group to LPS concentration of the physiological saline administration group.
# [3] = peritoneal lavage fluid 6 hr after CLP, read-out: LPS inhibitory ratio (%) in abdominal cavity
# [4] = serum 6 hr after CLP, read-out: LPS inhibitory ratio (%) in blood
Structure (SMILES),"inhibitory effect of compound on LPS in E. coli culture supernatant, relative ratio [1]","inhibition in vivo at 2.5 mg/kg/h [2, 3]","inhibition in vivo at 2.5 mg/kg/h [2, 4]","inhibitory effect of compound on LPS in E. coli culture supernatant, relative ratio ([1]; sodium salt)"
"CC(C)C[C@@H](C(=O)N[C@@H](Cc1ccccc1)C(=O)NCCCCCS(=O)(=O)[O-])C(CN1C(=O)c2ccccc2C1=O)C(=O)NO.[Na+] (single isomer, unassigned) [Example 22, 5-methyl-3(R)-[2-phenyl-1(S)-(5-sulfopentylcarbamoyl)ethylcarbamoyl]-2(R or S)-phthalimidomethylhexanohydroxamic acid sodium salt]",0.68,80.7%,21.6%,
"CC(C)C[C@@H](C(=O)N[C@@H](Cc1ccccc1)C(=O)NCCCCS(=O)(=O)[O-])C(CN1C(=O)c2ccccc2C1=O)C(=O)NO.[Na+] (single isomer, unassigned) [Example 21, 5-methyl-3(R)-[2-phenyl-1(S)-(4-sulfobutylcarbamoyl)ethylcarbamoyl]-2(R or S)-phthalimidomethylhexanohydroxamic acid sodium salt]",0.79,57.1%,55.9%,
"CNC(=O)[C@@H](Cc1ccc(OCCCS(=O)(=O)[O-])cc1)NC(=O)[C@H](CC(C)C)C(CN1C(=O)c2ccccc2C1=O)C(=O)NO.[Na+] (single isomer, unassigned) [Example 5, 5-methyl-3(R)-{1(R)-methylcarbamoyl-2-[4-(3-sulfopropoxy)phenyl]ethylcarbamoyl}-2(R or S)-phthalimidomethylhexanohydroxamic acid sodium salt]",,,,0.80
"CNC(=O)[C@@H](Cc1ccc(OCCCS(=O)(=O)[O-])cc1)NC(=O)[C@@H](CC(C)C)C(CN1C(=O)c2ccccc2C1=O)C(=O)NO.[Na+] (single isomer, unassigned) [Example 8, 5-methyl-3(S)-{1(R)-methylcarbamoyl-2-[4-(3-sulfopropoxy)phenyl]ethylcarbamoyl}-2(R or S)-phthalimidomethylhexanohydroxamic acid sodium salt]",,,,0.60
"CNC(=O)[C@H](Cc1ccc(OCCCS(=O)(=O)[O-])cc1)NC(=O)[C@H](CC(C)C)C(Cc1ccc2ccccc2c1)C(=O)NO.[Na+] (single isomer, unassigned) [Example 13, 5-methyl-3(R)-{1(S)-methylcarbamoyl-2-[4-(3-sulfopropoxy)phenyl]ethylcarbamoyl}-2(R or S)-(2-naphthylmethyl)hexanohydroxamic acid sodium salt]",0.87,44.7%,74.2%,
"CNC(=O)[C@H](Cc1ccc(OCCS(=O)(=O)[O-])cc1)NC(=O)[C@H](CC(C)C)C(CN1C(=O)c2ccccc2C1=O)C(=O)NO.[Na+] (single isomer, unassigned) [Example 10, 5-methyl-3(R)-{1(S)-methylcarbamoyl-2-[4-(2-sulfoethoxy)phenyl]ethylcarbamoyl}-2(R or S)-phthalimidomethylhexanohydroxamic acid sodium salt]",0.87,88.1%,81.4%,
"CC(C)C[C@@H](C(=O)N[C@@H](Cc1ccccc1)C(=O)NCS(=O)(=O)[O-])C(Cc1ccc2ccccc2c1)C(=O)NO.[Na+] (single isomer, unassigned) [Example 25, 5-methyl-2(R or S)-(2-naphthylmethyl)-3(R)-[2-phenyl-1(S)-(sulfomethylcarbamoyl)ethylcarbamoyl]hexanohydroxamic acid sodium salt]",0.33,,,
"CNC(=O)[C@H](Cc1ccc(OCCCCCS(=O)(=O)[O-])cc1)NC(=O)[C@H](CC(C)C)C(CN1C(=O)c2ccccc2C1=O)C(=O)NO.[Na+] (single isomer, unassigned) [Example 12, 5-methyl-3(R)-{1(S)-methylcarbamoyl-2-[4-(5-sulfopentoxy)phenyl]ethylcarbamoyl}-2(R or S)-phthalimidomethylhexanohydroxamic acid sodium salt]",0.85,,,
"CC(C)C[C@@H](C(=O)N[C@@H](Cc1ccccc1)C(=O)NCCS(=O)(=O)[O-])C(CN1C(=O)c2ccccc2C1=O)C(=O)NO.[Na+] (single isomer, unassigned) [Example 17, 5-methyl-3(R)-[2-phenyl-1(S)-(2-sulfoethylcarbamoyl)ethylcarbamoyl]-2(R or S)-phthalimidomethylhexanohydroxamic acid sodium salt]",0.78,14.4%,59.1%,
"CNC(=O)[C@H](Cc1ccc(OCCCS(=O)(=O)[O-])cc1)NC(=O)[C@@H](CC(C)C)C(CN1C(=O)c2ccccc2C1=O)C(=O)NO.[Na+] (single isomer, unassigned) [Example 7, 5-methyl-3(S)-{1(S)-methylcarbamoyl-2-[4-(3-sulfopropoxy)phenyl]ethylcarbamoyl}-2(R or S)-phthalimidomethylhexanohydroxamic acid sodium salt]",,,,0.79
"CNC(=O)[C@@H](Cc1ccc(OCCCS(=O)(=O)[O-])cc1)NC(=O)[C@H](CC(C)C)C(CN1C(=O)c2ccccc2C1=O)C(=O)NO.[Na+] (single isomer, unassigned) [Example 3, 5-methyl-3(R)-{1(R)-methylcarbamoyl-2-[4-(3-sulfopropoxy)phenyl]ethylcarbamoyl}-2(R or S)-phthalimidomethylhexanohydroxamic acid sodium salt]",,,,0.70
"CNC(=O)[C@H](Cc1ccc(OCCCS(=O)(=O)[O-])cc1)NC(=O)[C@@H](CC(C)C)C(CN1C(=O)c2ccccc2C1=O)C(=O)NO.[Na+] (single isomer, unassigned) [Example 9, 5-methyl-3(S)-{1(S)-methylcarbamoyl-2-[4-(3-sulfopropoxy)phenyl]ethylcarbamoyl}-2(R or S)-phthalimidomethylhexanohydroxamic acid sodium salt]",,,,0.51
"CNC(=O)[C@@H](Cc1ccc(OCCCS(=O)(=O)[O-])cc1)NC(=O)[C@@H](CC(C)C)C(CN1C(=O)c2ccccc2C1=O)C(=O)NO.[Na+] (single isomer, unassigned) [Example 6, 5-methyl-3(S)-{1(R)-methylcarbamoyl-2-[4-(3-sulfopropoxy)phenyl]ethylcarbamoyl}-2(R or S)-phthalimidomethylhexanohydroxamic acid sodium salt]",,,,0.69
"CNC(=O)[C@H](Cc1ccc(OCCCS(=O)(=O)[O-])cc1)NC(=O)[C@H](CC(C)C)C(CN1C(=O)c2ccccc2C1=O)C(=O)NO.[Na+] (single isomer, unassigned) [Example 4, 5-methyl-3(R)-{1(S)-methylcarbamoyl-2-[4-(3-sulfopropoxy)phenyl]ethylcarbamoyl}-2(R or S)-phthalimidomethylhexanohydroxamic acid sodium salt]",,,,0.69
"CC(C)C[C@@H](C(=O)N[C@@H](Cc1ccccc1)C(=O)NCCS(=O)(=O)[O-])C(Cc1ccc2ccccc2c1)C(=O)NO.[Na+] (single isomer, unassigned) [Example 26, 5-methyl-2(R or S)-(2-naphthylmethyl)-3(R)-[2-phenyl-1(S)-(2-sulfoethylcarbamoyl)ethylcarbamoyl]hexanohydroxamic acid sodium salt]",0.54,,,
